Data taken from patent US20230174608A1, “Polypeptide Derivative Having Dual Receptor Agonistic Action and Use Thereof” (TIANJIN INSTITUTE OF PHARMACEUTICAL RESEARCH CO., LTD., priority 2020, published 2023).
Where a SMILES comes first, the peptide text is derived from it.

How the values were obtained:
[1] = test system: glucose loaded normal mice; assay: Glucose loading test on normal mice after single administration; assay type: in vivo, Kunming mice; conditions: for Blood glucose reduction rate (%) / Blood glucose level after glucose loading: 30 nmol/kg single dose; for Blood glucose reduction rate (%): after glucose loading, versus model control group; for Blood glucose level after glucose loading: glucose 2.5 g/kg intragastric 60 min after administration, measured 30 min after loading; for Blood glucose level after glucose loading / Fasting blood glucose level: n=5; for Fasting blood glucose level: normal mice fasted 6 h, 30 nmol/kg group
Experimental: The hypoglycemic action of each compound of Example 1 was assessed by a glucose loading test on normal mice after single administration.
Method: Kunming mice (male, with a weight of 20-22 g) were acclimated in a barrier environment animal room for 3 days, divided into a blank control group, a model control group, a positive control group, and test compound groups, 5 mice in each group, and fasted for 6 h. Saline was administered to each mouse in the blank control group and the model control group, the compounds and a positive control drug were respectively administered to each mouse in the test compound groups and the positive control group at a dose of 30 nmol/kg, and the positive control drug was semaglutide. 60 min after administration, glucose was intragastrically administered to each mouse in the model control group, the positive control group, and the test compound groups at a dose of 2.5 g/kg (0.01 mL·g^−1 weight), distilled water was administered to each mouse in the blank control group, and blood glucose levels were determined 30 min after glucose loading.

GLP-1R = molecular target: T1, GLP-1R (Homo sapiens, UniProt P43220); assay: GLP-1 receptor-mediated cAMP production in vitro; assay type: cell-based; conditions: HEK293 cell line stably expressing GLP-1R
T1 construct: expressed in transfected cells
Experimental: (§1) HEK293 cell line stably expressing GLP-1R or GCGR was used for screening GLP-1R and GCGR agonist.
(§2) Preparation of test sample: each compound was prepared into 100 μM stock solution, and then gradually diluted to working concentrations of 1 μM, 100 nM, 10 nM, 1 nM, 10^−1 nM, 10^−2 nM, 10^−3 nM, and H2O.
(§3) 1) Each compound to be tested was mixed with a serum-free medium (containing 0.1% BSA and 0.5 mM IBMX) to obtain a solution at a concentration 2 times the working concentration.
(§4) 2) The cells were digested, suspended in a serum-free medium (containing 0.5 mM IBMX), counted, and placed in a 384-well plate at a density of 1,000 cells/5 μL/well, then 5 μL of the testing compound was added, and the plate was placed in dark for reaction for 30 min.
(§5) 3) After the reaction was completed, a substrate for detecting cAMP was added, and the plate was placed in dark for reaction at the room temperature for 60 min.
(§6) 4) After the reaction was completed, the plate was placed on the Envision2104 multifunctional microplate reader for detection, and the ratio of optical density (OD) values at 665 nm and 615 nm were read out.

GCGR = molecular target: T2, GCGR (Homo sapiens, UniProt P47871); assay: GC receptor-mediated cAMP production in vitro; assay type: cell-based; conditions: HEK293 cell line stably expressing GCGR
T2 construct: expressed in transfected cells
Experimental: as §1, §2, §3, §4, §5, §6

[2] = test system: diet-induced obesity (DIO) mice; assay: Obese (DIO) model mice, 23 days of successive administration; assay type: in vivo, C57BL/6J Gpt mice
Text: C57BL/6J Gpt mice (purchased from GemPharmatech (Jiangsu) Co., Ltd.) (6-8-week-old) were fed with H10060 high-fat diet (purchased from Beijing HFK Bioscience Co., Ltd.) to obtain diet-induced obesity (DIO) models, mice in a blank control group (n=5) were fed with standard diets, and all the mice were fed for 11 weeks after being purchased. One day before the first administration, the mice in the model group were randomly divided into 5 groups according to their weights (within a range of 39.5-49.5 g), i.e., a model control group, a positive control group, and test compound groups (dgc005, dgc016, and dgc020), respectively, 5 mice in each group, which were administered every day by subcutaneous injection. Saline was subcutaneously injected in the blank control group and the model control group every day. The administration was performed for 23 days. The positive control drug and the test compounds were administered at a dose of 30 nmol/kg, and the administration volume for each group was 0.005 mL/g weight. The mice were weighed before each administration, and 72-h food intake was weighed every three days. The mice fasted for 16 h before the last administration, fasting blood glucose levels were determined, blood was sampled from the orbital venous plexus to determine triglycerides and total cholesterol, and the liver was taken out for pathological section observation.
The liver of each C576L/6 mouse in the groups was fixed with 12% formaldehyde and prepared into a specimen, and the tissue block was repaired, dehydrated with graded alcohol, embedded in paraffin, stained with HE, and examined under a light microscope.

[3] = after 23 days of administration, 30 nmol/kg s.c. daily, n=5

T1 sequence (P43220 24-463, species assumed): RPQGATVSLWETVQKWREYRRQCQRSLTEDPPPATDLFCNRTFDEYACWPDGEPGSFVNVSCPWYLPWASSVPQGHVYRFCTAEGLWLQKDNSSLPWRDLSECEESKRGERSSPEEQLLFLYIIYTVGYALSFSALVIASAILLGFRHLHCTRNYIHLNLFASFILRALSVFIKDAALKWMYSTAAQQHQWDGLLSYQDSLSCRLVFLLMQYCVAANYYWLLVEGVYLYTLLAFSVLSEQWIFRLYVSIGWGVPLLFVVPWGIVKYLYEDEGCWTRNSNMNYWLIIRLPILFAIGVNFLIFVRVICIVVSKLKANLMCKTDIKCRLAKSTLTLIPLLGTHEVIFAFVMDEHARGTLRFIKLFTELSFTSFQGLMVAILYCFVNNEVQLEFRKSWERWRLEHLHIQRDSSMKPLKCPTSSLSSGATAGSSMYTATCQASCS
T2 sequence (P47871 26-477, species assumed): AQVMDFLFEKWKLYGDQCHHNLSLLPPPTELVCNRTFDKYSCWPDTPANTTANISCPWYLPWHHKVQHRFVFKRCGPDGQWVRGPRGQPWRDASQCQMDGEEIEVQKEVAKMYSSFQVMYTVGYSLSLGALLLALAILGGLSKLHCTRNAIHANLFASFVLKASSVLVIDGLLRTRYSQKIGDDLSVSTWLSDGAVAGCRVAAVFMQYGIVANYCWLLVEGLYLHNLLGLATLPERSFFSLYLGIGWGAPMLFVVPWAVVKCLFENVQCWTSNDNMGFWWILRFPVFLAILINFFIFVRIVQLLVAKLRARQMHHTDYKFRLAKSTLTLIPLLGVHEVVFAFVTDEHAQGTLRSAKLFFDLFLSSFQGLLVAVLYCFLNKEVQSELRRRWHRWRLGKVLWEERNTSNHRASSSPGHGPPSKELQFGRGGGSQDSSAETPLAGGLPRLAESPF

Structure (SMILES)	Blood glucose reduction rate (%) [1] [%]	Blood glucose level after glucose loading [1] [mmol/L]	Fasting blood glucose level [1] [mmol/L]	EC50 (GLP-1R) [nM]	EC50 (GCGR) [nM]	Fasting blood glucose (mmol/L) before the last administration ([2]; 30 nmol/kg s.c. daily, 23 days, fasted 16 h, n=5) [mmol/L]	Weight decreasing rate ([2]; 30 nmol/kg s.c. every day, without fasting before the last administration compared to day 1) [%]	Examination of liver pathological section ([2]; 23 days, 30 nmol/kg s.c. daily, HE stain, 2 animals)	TC (total cholesterol) [2, 3] [mmol/L]	TG (triglycerides) [2, 3]	72-h food intake ([2]; day 4 of administration, 30 nmol/kg s.c. daily) [g/mouse]	72-h food intake ([2]; day 7 of administration, 30 nmol/kg s.c. daily) [g/mouse]	72-h food intake ([2]; day 10 of administration, 30 nmol/kg s.c. daily) [g/mouse]	72-h food intake ([2]; day 13 of administration, 30 nmol/kg s.c. daily) [g/mouse]
CCCCCCCCCCCCCCCC(=O)N[C@@H](CCC(=O)N[C@@H](CCC(=O)NCCCC[C@H](NC(=O)[C@H](C)NC(=O)[C@H](C)NC(=O)[C@H](CCCNC(=N)N)NC(=O)[C@H](CCC(=O)O)NC(=O)[C@H](CC(=O)O)NC(=O)[C@H](CC(C)C)NC(=O)[C@H](Cc1ccc(O)cc1)NC(=O)[C@H](CCCCN)NC(=O)[C@H](CO)NC(=O)[C@H](Cc1ccc(O)cc1)NC(=O)[C@H](CC(=O)O)NC(=O)[C@H](CO)NC(=O)[C@@H](NC(=O)[C@H](Cc1ccccc1)NC(=O)[C@@H](NC(=O)CNC(=O)[C@H](CCC(N)=O)NC(=O)C(C)(C)NC(=O)[C@@H](N)Cc1c[nH]cn1)[C@@H](C)O)[C@@H](C)O)C(=O)N[C@@H](CCC(=O)O)C(=O)N[C@@H](Cc1ccccc1)C(=O)N[C@H](C(=O)N[C@@H](C)C(=O)N[C@@H](Cc1c[nH]c2ccccc12)C(=O)N[C@@H](CC(C)C)C(=O)N[C@@H](CCC(=O)O)C(=O)NCC(=O)NCC(N)=O)[C@@H](C)CC)C(=O)O)C(=O)O [dgc013] (HELM PEPTIDE1{H.[Aib].Q.G.T.F.T.S.D.Y.S.K.Y.L.D.E.R.A.A.K.E.F.I.A.W.L.E.G.G.[am]}|PEPTIDE2{[CCCCCCCCCCCCCCCC(=O)[*:2]].[gGlu].[gGlu]}$PEPTIDE1,PEPTIDE2,20:R3-3:R2$$$V2.0; N-terminus assumed)	45.53	9.26 ± 1.76	3.92 ± 0.51	0.319	1.99									
CCCCCCCCCCCCCCCC(=O)N[C@@H](CCC(=O)NCCCC[C@H](NC(=O)[C@H](C)NC(=O)[C@H](C)NC(=O)[C@H](CCCNC(=N)N)NC(=O)[C@H](CCC(=O)O)NC(=O)[C@H](CCC(=O)O)NC(=O)[C@H](CC(C)C)NC(=O)[C@H](Cc1ccc(O)cc1)NC(=O)[C@H](CCCCN)NC(=O)[C@H](CO)NC(=O)[C@H](Cc1ccc(O)cc1)NC(=O)[C@H](CC(=O)O)NC(=O)[C@H](CO)NC(=O)[C@@H](NC(=O)[C@H](Cc1ccccc1)NC(=O)[C@@H](NC(=O)CNC(=O)[C@H](CCC(N)=O)NC(=O)C(C)(C)NC(=O)[C@@H](N)Cc1c[nH]cn1)[C@@H](C)O)[C@@H](C)O)C(=O)N[C@@H](CCC(=O)O)C(=O)N[C@@H](Cc1ccccc1)C(=O)N[C@H](C(=O)N[C@@H](C)C(=O)N[C@@H](Cc1c[nH]c2ccccc12)C(=O)N[C@@H](CC(C)C)C(=O)N[C@@H](CCC(=O)O)C(=O)N[C@@H](CO)C(=O)NCC(=O)NCC(N)=O)[C@@H](C)CC)C(=O)O [dgc008] (HELM PEPTIDE1{H.[Aib].Q.G.T.F.T.S.D.Y.S.K.Y.L.E.E.R.A.A.K.E.F.I.A.W.L.E.S.G.G.[am]}|PEPTIDE2{[CCCCCCCCCCCCCCCC(=O)[*:2]].[gGlu]}$PEPTIDE1,PEPTIDE2,20:R3-2:R2$$$V2.0; N-terminus assumed)	48.70	8.72 ± 1.99	3.64 ± 1.00	0.742	2.03									
CCCCCCCCCCCCCCCC(=O)N[C@@H](CCC(=O)N[C@@H](CCC(=O)NCCCC[C@H](NC(=O)[C@H](C)NC(=O)[C@H](C)NC(=O)[C@H](CCCNC(=N)N)NC(=O)[C@H](CCC(=O)O)NC(=O)[C@H](CCC(=O)O)NC(=O)[C@H](CC(C)C)NC(=O)[C@H](Cc1ccc(O)cc1)NC(=O)[C@H](CCCCN)NC(=O)[C@H](CO)NC(=O)[C@H](Cc1ccc(O)cc1)NC(=O)[C@H](CC(=O)O)NC(=O)[C@H](CO)NC(=O)[C@@H](NC(=O)[C@H](Cc1ccccc1)NC(=O)[C@@H](NC(=O)CNC(=O)[C@H](CCC(N)=O)NC(=O)C(C)(C)NC(=O)[C@@H](N)Cc1c[nH]cn1)[C@@H](C)O)[C@@H](C)O)C(=O)N[C@@H](CCC(=O)O)C(=O)N[C@@H](Cc1ccccc1)C(=O)N[C@H](C(=O)N[C@@H](C)C(=O)N[C@@H](Cc1c[nH]c2ccccc12)C(=O)N[C@@H](CC(C)C)C(=O)N[C@@H](CCC(=O)O)C(=O)NCC(=O)N[C@@H](CCC(=O)O)C(=O)NCC(N)=O)[C@@H](C)CC)C(=O)O)C(=O)O [dgc020] (HELM PEPTIDE1{H.[Aib].Q.G.T.F.T.S.D.Y.S.K.Y.L.E.E.R.A.A.K.E.F.I.A.W.L.E.G.E.G.[am]}|PEPTIDE2{[CCCCCCCCCCCCCCCC(=O)[*:2]].[gGlu].[gGlu]}$PEPTIDE1,PEPTIDE2,20:R3-3:R2$$$V2.0; N-terminus assumed)	42.24	9.82 ± 2.06	4.24 ± 0.63	1.51	0.883	4.78 ± 0.46	25.0	no obvious pathological changes are seen in portal areas and interstitium	3.62 ± 0.84	0.88 ± 0.28^Δ mmol/L	3.50	4.50	5.70	5.50
CCCCCCCCCCCCCCCC(=O)N[C@@H](CCC(=O)NCCCC[C@H](NC(=O)[C@H](C)NC(=O)[C@H](C)NC(=O)[C@H](CCCNC(=N)N)NC(=O)[C@H](CCC(=O)O)NC(=O)[C@H](CC(=O)O)NC(=O)[C@H](CC(C)C)NC(=O)[C@H](Cc1ccc(O)cc1)NC(=O)[C@H](CCCCN)NC(=O)[C@H](CO)NC(=O)[C@H](Cc1ccc(O)cc1)NC(=O)[C@H](CC(=O)O)NC(=O)[C@H](CO)NC(=O)[C@@H](NC(=O)[C@H](Cc1ccccc1)NC(=O)[C@@H](NC(=O)CNC(=O)[C@H](CCC(N)=O)NC(=O)[C@H](CO)NC(=O)[C@@H](N)Cc1c[nH]cn1)[C@@H](C)O)[C@@H](C)O)C(=O)N[C@@H](CCC(=O)O)C(=O)N[C@@H](Cc1ccccc1)C(=O)N[C@H](C(=O)N[C@@H](C)C(=O)N[C@@H](Cc1c[nH]c2ccccc12)C(=O)N[C@@H](CC(C)C)C(=O)N[C@@H](CCC(=O)O)C(=O)N[C@@H](C)C(=O)NCC(=O)NCC(N)=O)[C@@H](C)CC)C(=O)O [dgc001] (HELM PEPTIDE1{H.S.Q.G.T.F.T.S.D.Y.S.K.Y.L.D.E.R.A.A.K.E.F.I.A.W.L.E.A.G.G.[am]}|PEPTIDE2{[CCCCCCCCCCCCCCCC(=O)[*:2]].[gGlu]}$PEPTIDE1,PEPTIDE2,20:R3-2:R2$$$V2.0; N-terminus assumed)				1.13	0.806									
